According to US5886014A, “Benzimidazole derivatives, their preparation and their therapeutic use” (Sankyo Company, Limited, priority 1995, dated 1999):

Legend:
[1] = biological target: T1, Bovine lens aldose reductase (Bos taurus, UniProt P16116); experiment: Inhibition of Aldose reductase; assay type: biochemical; details: for inhibition at 5 µg/mL: read-out: Inhibition (%) at 5 μg/ml
T1 construct: Bovine lens aldose reductase was separated and partially purified; from tissue; host or cells: bovine lens
Method: Bovine lens aldose reductase was separated and partially purified by the method of S. Hyman and J. H. Kinoshita [J. Biol. Chem. 240, 877 (1965)] and K. Inagaki, I. Miwa and J. Okuda [Arch. Biochem. Biophys., 216, 337 (1982)], and its activity was determined photometrically by the method of Varma et al. [Biochem. Pharmac., 25, 2505 (1976)]. Inhibition of enzyme activity was measured for the compounds of the present invention at a concentration of 5 μg/ml, and the measured values were used to calculate the IC50 values.

blood glucose level = experiment: Hypoglycemic activity in hyperglycemic KK mice (blood glucose level); assay type: in vivo, male mice of the KK strain; details: 1 mg/kg oral, 18 hours, vs solvent-only group
Method: The test animals used were hyperglycemic male mice of the KK strain, each having a body weight of at least 40 g. The compounds under test were mixed with a 1:1 by volume mixture of polyethylene glycol 400 and water. Each animal was orally administered a test compound in the amount shown in the following Table 6 and then allowed to feed freely for 18 hours. At the end of this time, blood was collected from the tail veins without anesthesia. The blood glucose level (BGL) was determined by means of a glucose analyzer (GL-101, manufactured by Mitsubishi Kasei Co. or a Glucoroder-F manufactured by Shino Test Co.). The hypoglycemic effect was calculated by the following equation: Hypoglycemic effect (%)=[(BGLs -BGLt)/BGLs ]×100 where: BGLs is the blood glucose level in the group administered a solvent only, but no active compound; and BGLt is the blood glucose level in the group administered a test compound. The results are shown in the following Table 6, in which each compound of the present invention is identified by the number of one of the following Examples in which its preparation is illustrated.

Row | SMILES | IC50 [1] | inhibition at 5 µg/mL [1] | Hypoglycemic effect (%) (blood glucose level)
1 | Cn1c(COc2ccc(CC3SC(=O)NC3=O)cc2)nc2ccccc21 (centres unmarked) [Example 1, 5-[4-(1-Methylbenzimidazol-2-ylmethoxy)benzyl]thiazolidine-2,4-dione] | 2.1 µM | 80.3% | 36.2%
2 | COc1ccc2nc(COc3ccc(CC4SC(=O)NC4=O)cc3)n(C)c2c1 (centres unmarked) [Example 2, 5-[4-(6-Methoxy-1-methylbenzimidazol-2-ylmethoxy)benzyl]thiazolidine-2,4-dione] | – | – | 27.2%
3 | Cc1c(O)c(C)c2nc(COc3ccc(CC4SC(=O)NC4=O)cc3)n(C)c2c1C (centres unmarked) [Example 3, 5-[4-(5-Hydroxy-1,4,6,7-tetramethylbenzimidazol-2-ylmethoxy)benzyl]thiazolidine-2,4-dione] | 3.29 µM | 79.6% | 11.2%
4 | Cc1c(O)c(C)c2nc(COc3ccc(CC4SC(=O)NC4=O)cc3)n(C)c2c1C.Cl (centres unmarked) [Example 4, 5-[4-(5-Hydroxy-1,4,6,7-tetramethylbenzimidazol-2-ylmethoxy)benzyl]thiazolidine-2,4-dione hydrochloride] | – | – | 19.3%
